Results reported in patent US5663196A, “Methods for treating neoplastic disorders” (Boston University, priority 1993, dated 1997).

Tests used:
[1] = system: RDM-4 cells (type T lymphoma); assay: Trypan Blue cell viability, RDM-4; assay type: cell-based; conditions: Mus musculus, read-out: Trypan Blue Cell Viability (%)
Excerpt: (§1) 1) The Trypan Blue Dye Exclusion Test for monitoring ceil viability as described by Phillips, H. J., in Tissue Culture Methods and Applications; Kruse, P. F., Jr., Patterson, M. K., Eds.; Academic Press, New York, 1973, 406, and by Wu, Y. W., Chik, L. L., Knazek, R. A. Cancer Research 1989, 49, 3754. The results of this assay are expressed as a percentage of viable cells:
(§2) [% viable cells]=[no. of alive cells]/[total no. of cells]×100
(§3) where the total no. cells=dead cells+alive cells. The results are compared directly with an untreated control, which typically show a three-to-four-fold increase for cancer cells, and a two-fold increase for normal cells. Treatments resulting in [% viable cells] of <30% are considered cytotoxic. Therefore, the trypan blue dye exclusion test was used to assess the number of dead and alive cells using various cell lines upon treatment with the crude and purified agent. This test provides a simple clue to the acute or late onset of a cytotoxic response. Readings for this and all other in vitro assays were taken 48 hours after treatment with the unpurified agent, and also […] after treatment for the purified agent. Thus, the trypan blue dye exclusion assay functions to confirm whether or not the cells were viable at the time readings were taken for other bioassays.
(§4) The final in vitro assays performed with the preferred purified active agent were intended to examine the scope of the activity in the trypan blue assay against a wider range of tumor cell lines (Tables 10 and 11). These cell lines included a […] lymphoma BW8767, a BW mutant which is more resistant than the BW cell lines used in other assays, as evidenced by the results in Tables 10 and 11.

[2] = system: BW8767 cells (BW resistant mutant); assay: Trypan Blue cell viability, BW8767; assay type: cell-based; conditions: Mus musculus, read-out: Trypan Blue Cell Viability (%)
Excerpt: as §1, §2, §3, §4

[3] = system: EL-4 cells (type T lymphoma); assay: 3H-Thymidine Incorporation, EL-4; assay type: cell-based; conditions: Mus musculus, read-out: 3H-Thymidine Incorporation (DNA Synthesis) Inhibition (%)
Excerpt: (§5) 2) The ^3 H-Thymidine Incorporation Test as described by Ju, S. T., Dorf, M. E. J. Immunol. 1985, 134, 3722. This test was used for monitoring cellular proliferation by monitoring DNA synthesis. The results are expressed as percent ^3 H-thymidine incorporation relative to an untreated control:
(§6) [% ^3 H-thymidine incorporation]=[cpm agent treated cells]/[cpm
(§7) where cpm=counts per minute. Treatments resulting in [% ^3 H-thymidine incorporation] of <50% are considered active.
(§8) The ^3 H-thymidine incorporation assay therefore measures the amount of DNA synthesis when the cells are in the "S" phase of the cell cycle, and is used to assess cell proliferation. Cancer cells, which have a very rapid cell cycle turnover, normally incorporate large amounts of tritium (^3 H) unless inhibited by an exogenous agent. […] While the trypan blue dye exclusion test is an indicator of cell death, the ^3 H-thymidine incorporation test indicates a cytostatic status (not necessarily cytotoxic) of the cell. As previously noted, this latter test was the primary screen used to guide the isolation to the active agent.

[4] = system: BW (BW5147) lymphoma cells; assay: 3H-Thymidine Incorporation, BW (BW5147); assay type: cell-based, mouse
Excerpt: as §5, §6, §7
The ^3 H-thymidine incorporation assay therefore measures the amount of DNA synthesis when the cells are in the "S" phase of the cell cycle, and is used to assess cell proliferation. […]
With the preferred purified active agent in hand, ^3 H-thymidine incorporation and trypan blue assays were initially performed at different dosages using LK and BW lymphoma ceil lines in order to confirm the activity of the preferred purified active agent, and to bracket the active concentration range for the preferred purified active agent. […] In addition, the time course of cell viability in the trypan blue assay was also monitored in order to best optimize subsequent assays to ensure that the cells were still viable at the time of measurement, and to ensure a nontoxic response of the cells to the agent. […] Consequently the results of the in vitro assays employing purified agent were all recorded after 24 hours. […]

LK lymphoma cells [5] = assay: 3H-Thymidine Incorporation, LK; assay type: cell-based, mouse
Excerpt: as §5, §6, §7, §8
With the preferred purified active agent in hand, ^3 H-thymidine incorporation and trypan blue assays were initially performed at different dosages using LK and BW lymphoma ceil lines in order to confirm the activity of the preferred purified active agent, and to bracket the active concentration range for the preferred purified active agent. With a molecular weight of 328, a 1 μg/mL solution corresponds to 3 μM concentration. In addition, the time course of cell viability in the trypan blue assay was also monitored in order to best optimize subsequent assays to ensure that the cells were still viable at the time of measurement, and to ensure a nontoxic response of the cells to the agent. Toxicity of the agent would have been observed as cell death within 2 hours. The trypan blue assays (Table 7), run at 30 μM and 3 μM of purified agent (10 and 1 μg/mL, respectively), indicated excellent cell viability after 24 hours, though with a significant drop in viability after 48 hours at a 30 μM dose of preferred purified active agent. Consequently the results of the in vitro assays employing purified agent were all recorded after 24 hours. In the ^3 H-thymidine incorporation assay (Table 8), dosages ranging from 0.1 to 250 μg/mL were examined.

P815 cells (mastocytoma) = assay: 3H-Thymidine Incorporation, P815; assay type: cell-based; conditions: Mus musculus, read-out: 3H-Thymidine Incorporation (DNA Synthesis) Inhibition (%)
Excerpt: as §5, §6, §7, §8

[6] = system: CT26 cells (colon adenocarcinoma); assay: 3H-Thymidine Incorporation, CT26; assay type: cell-based; conditions: Mus musculus, read-out: 3H-Thymidine Incorporation (DNA Synthesis) Inhibition (%)
Excerpt: as §5, §6, §7, §8

C7 cloned T-cells = assay: 3H-Thymidine Incorporation, C7; assay type: cell-based; conditions: Mus musculus, T-cell, read-out: 3H-Thymidine Incorporation (DNA Synthesis) Inhibition (%)
Excerpt: as §5, §6, §7, §8
Each of these three fractions were then tested in the trypan blue and ^3 H-thymidine incorporation assays along with the original CsA as a control, against the LS cell line, which was the most sensitive of the cancer lines (Tables 3 and 4). […] The results of the trypan blue and ^3 H-thymidine incorporation assays against the three cell lines are compiled in Tables 5a-5f.

[7] = system: RDM-4 cells (type T lymphoma); assay: 3H-Thymidine Incorporation, RDM-4; assay type: cell-based; conditions: Mus musculus, read-out: 3H-Thymidine Incorporation (DNA Synthesis) Inhibition (%)
Excerpt: as §5, §6, §7, §8, §4

[8] = system: BW8767 cells (BW resistant mutant); assay: 3H-Thymidine Incorporation, BW8767; assay type: cell-based; conditions: Mus musculus, read-out: 3H-Thymidine Incorporation (DNA Synthesis) Inhibition (%)
Excerpt: as §5, §6, §7, §8, §4

BW lymphoma cells = assay: 35S-Methionine Incorporation (protein synthesis), BW; assay type: cell-based; conditions: Mus musculus; for activity at 1 µg/mL: 1 μg/mL; for activity at 10 µg/mL: 10 μg/mL
Excerpt: (§9) 3) ^35 S-Methionine Incorporation Test as described by Sorenson, C. M., Barry, M. A., Eastman, A. J. Natl. Canc. Inst. 1990, 82, 749. The results are expressed as percent ^35 S-methionine incorporation relative to an untreated control:
(§10) [% ^35 S-methionine incorporation]=[cpm agent treated cells]/[cpm
(§11) where cpm=counts per minute. Treatments resulting in [% ^35 S-methionine incorporation] of <50% are considered active.
(§12) The ^35 S-methionine incorporation test therefore measures protein synthesis. Activity in this bioassay could arise from inhibition of transcription and/or translation.
(§13) In this test, BW and LK lymphoma cells were treated with the preferred purified active agent at 1 μg/mL and 10 μg/mL for comparison with an untreated control. The treated cells were split into two groups, one of which was thoroughly washed to remove the preferred purified active agent prior to incubation with ^35 S-methionine.

LK lymphoma cells [9] = assay: 35S-Methionine Incorporation (protein synthesis), LK; assay type: cell-based; conditions: Mus musculus; for activity at 1 µg/mL: 1 μg/mL; for activity at 10 µg/mL: 10 μg/mL
Excerpt: as §9, §10, §11, §12, §13

[10] = system: CT26 colon adenocarcinoma cells; assay: Lung metastases of CT26 in BALB/C mice, 3rd study; assay type: in vivo; conditions: day 5; 5 μg/g mouse
Procedure: The in vivo activity of the active agent was assessed against two tumor cell types injected into mice: CT26 and Ehrlich Ascites (EAT) tumor cell lines. The protocols of the "National Cancer Institute, Drug Research and Development Division of Cancer Treatment, Instruction 14, Screening Data Summary Interpretation and Outline of Current Screen" were followed.
In a subsequent experiment, mice that had been implanted with CT26 cells as above were treated on day 5 with the solid residue from the evaporation of CsA (100 μg/g mouse), and with the preferred purified active agent 11β,13-dihydrolactucin (5 μg/g mouse).

For `CC1=C2C(=O)C=C(CO)[C@@H]2[C@H]2OC(=O)[C@@H](C)[C@@H]2[C@@H](O)C1` [11β,13-dihydrolactucin, 3,6-dimethyl-4-hydroxy-9-hydroxymethyl-3,3a,4,5,9a,9b-hexahydroazuleno[4,5-b]furan-2,7-dione], the viability at 1 µg/mL [1] was 100%, the viability at 10 µg/mL [1] was 90% and the viability at 0.1 µg/mL [2] was 100%. The viability at 0.5 µg/mL [2] was 100%, the viability at 1 µg/mL [2] was 100% and the viability at 10 µg/mL [2] was 100%. It also gave an inhibition at 0.1 µg/mL ([3]; EL4, 0.1 μg/mL) of 100%, an inhibition at 0.5 µg/mL ([3]; EL4, 0.5 μg/mL) of 100% and an inhibition at 1 µg/mL ([3]; EL4, 1.0 μg/mL) of 78%. For the same compound, the inhibition at 10 µg/mL ([3]; EL4, 10 μg/mL) was 38%, the “ED50, 3H-thymidine incorporation” value [4] was “micromolar range” and the “ED50, 3H-thymidine incorporation” value (LK lymphoma cells [5]) was “micromolar range”. The inhibition at 0.1 µg/mL (LK lymphoma cells [5]; Mus musculus, 3 h, 0.1 μg/mL, read-out: 3H-Thymidine Incorporation (DNA Synthesis) Inhibition (%)) was 95%, the inhibition at 1 µg/mL (LK lymphoma cells [5]; Mus musculus, 3 h, 1 μg/mL, read-out: 3H-Thymidine Incorporation (DNA Synthesis) Inhibition (%)) was 75% and the inhibition at 10 µg/mL (LK lymphoma cells [5]; Mus musculus, 3 h, 10 μg/mL, read-out: 3H-Thymidine Incorporation (DNA Synthesis) Inhibition (%)) was 5%. The inhibition at 25 µg/mL (LK lymphoma cells [5]; Mus musculus, 3 h, 25 μg/mL, read-out: 3H-Thymidine Incorporation (DNA Synthesis) Inhibition (%)) was 2%, the inhibition at 100 µg/mL (LK lymphoma cells [5]; Mus musculus, 3 h, 100 μg/mL, read-out: 3H-Thymidine Incorporation (DNA Synthesis) Inhibition (%)) was 2% and the inhibition at 250 µg/mL (LK lymphoma cells [5]; Mus musculus, 3 h, 250 μg/mL, read-out: 3H-Thymidine Incorporation (DNA Synthesis) Inhibition (%)) was 2%. It also gave an inhibition at 0.1 µg/mL (P815 cells (mastocytoma); 0.1 μg/mL) of 100%, an inhibition at 0.5 µg/mL (P815 cells (mastocytoma); 0.5 μg/mL) of 100% and an inhibition at 1 µg/mL (P815 cells (mastocytoma); 1.0 μg/mL) of 50%. It also gave an inhibition at 10 µg/mL (P815 cells (mastocytoma); 10 μg/mL) of 36%, an inhibition at 0.1 µg/mL ([6]; 0.1 μg/mL) of 100% and an inhibition at 0.5 µg/mL ([6]; 0.5 μg/mL) of 50%. It also gave an inhibition at 1 µg/mL ([6]; 1.0 μg/mL) of 5%, an inhibition at 10 µg/mL ([6]; 10 μg/mL) of 1% and an inhibition at 0.1 µg/mL (C7 cloned T-cells; 0.1 μg/mL) of 100%. For the same compound, the inhibition at 0.5 µg/mL (C7 cloned T-cells; 0.5 μg/mL) was 100%, the inhibition at 1 µg/mL (C7 cloned T-cells; 1.0 μg/mL) was 100% and the inhibition at 10 µg/mL (C7 cloned T-cells; 10 μg/mL) was 75%. It also gave an inhibition at 0.1 µg/mL ([7]; 0.1 μg/mL) of 100%, an inhibition at 0.5 µg/mL ([7]; 0.5 μg/mL) of 100% and an inhibition at 1 µg/mL ([7]; 1.0 μg/mL) of 80%. For the same compound, the inhibition at 10 µg/mL ([7]; 10 μg/mL) was 60%, the inhibition at 0.1 µg/mL ([8]; 0.1 μg/mL) was 100% and the inhibition at 0.5 µg/mL ([8]; 0.5 μg/mL) was 100%. The inhibition at 1 µg/mL ([8]; 1.0 μg/mL) was 80%, the inhibition at 10 µg/mL ([8]; 10 μg/mL) was 60% and the activity at 1 µg/mL (BW lymphoma cells; BW (washed)) was 100%. It also gave an activity at 10 µg/mL (BW lymphoma cells; BW (washed)) of 100%, an activity at 1 µg/mL (BW lymphoma cells; BW, unwashed) of 10% and an activity at 10 µg/mL (BW lymphoma cells; BW, unwashed) of 2%. It also gave an activity at 1 µg/mL (LK lymphoma cells [9]; LK (washed)) of 100%, an activity at 10 µg/mL (LK lymphoma cells [9]; LK (washed)) of 100% and an activity at 1 µg/mL (LK lymphoma cells [9]; LK, unwashed) of 50%. The activity at 10 µg/mL (LK lymphoma cells [9]; LK, unwashed) was 10% and the “Number of Metastases (mean ± S.D.)” value [10] was 0.33 ± 0.33.
